Experimental data from patent US20230234943A1, “TREX1 INHIBITORS AND USES THEREOF” (Tempest Therapeutics, Inc., priority 2020, published 2023).

Target: T1, Human TREX1 enzyme (amino acids 1-242) (Homo sapiens, UniProt Q9NSU2)
T1 construct: Human TREX1 enzyme (amino acids 1-242)
T1 sequence (Q9NSU2 1-242): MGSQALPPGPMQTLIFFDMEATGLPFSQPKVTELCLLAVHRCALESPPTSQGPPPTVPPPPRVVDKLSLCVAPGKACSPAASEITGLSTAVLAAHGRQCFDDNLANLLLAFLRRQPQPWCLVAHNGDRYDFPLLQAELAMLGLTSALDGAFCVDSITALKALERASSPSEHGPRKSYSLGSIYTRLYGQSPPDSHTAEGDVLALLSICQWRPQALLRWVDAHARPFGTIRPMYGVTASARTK
Test: Human TREX1 enzymatic assay with dsDNA native oligonucleotide (Picogreen fluorescence)
Format: biochemical
Conditions: 2 mM dithiothreitol in assay buffer; 50 nM dsDNA oligonucleotide; 30 min preincubation at 25° C.; read-out: TREX1/Human + DTT IC50 AVG
Description: Example A. Human TREX1 Enzymatic Assay with dsDNA Native Oligonucleotide
Human TREX1 enzyme (amino acids 1-242) was diluted in assay buffer (20 mM Tris pH 7.7, 5 mM MgCl2, 0.01% human serum albumin, 0.01% Brij™-35, 2 mM dithiothreitol) to a final concentration of 0.8 nM to 0.16 nM and added to a 96-well low-binding polypropylene plate. Test compounds were diluted in DMSO to 50× concentration (final DMSO concentration in reaction mixture of 2%) and added to the wells with a concentration ranging from 300 μM to 13 nM or 30 μM to 1.5 nM. The reaction mixtures were incubated for 30 minutes at 25° C. and a solution of annealed dsDNA oligonucleotide (5′-[…]-3′ and Comp: 5′-[…]-3′) was added to a final concentration of 50 nM. The reaction mixtures were incubated at 25° C. for 5-15 minutes and subsequently quenched by transferring part of the assay reaction to a solution of 100 mM ethylenediaminetetraacetic acid and 1:100 Picogreen™ (final concentration of […]) in a black plate with an opaque bottom. The fluorescence ([…]) was measured using a Molecular Devices SpectraMax plate reader. Wells containing oligonucleotide but no TREX1 enzyme were used as negative controls. Wells containing oligonucleotide, TREX1 enzyme, and DMSO were used as positive controls.

| Compound | IC50 |
| --- | --- |
| COc1cc(-c2nc3ccncc3[nH]2)c(C)c(O)c1O [Example 78, 4-(3H-imidazo[4,5-c]pyridin-2-yl)-6-methoxy-3-methylbenzene-1,2-diol] | 10 to 100 µM |
| COc1cc(-c2nc3ccncc3[nH]2)c(-c2cccnc2)c(O)c1O [Example 79, 4-(3H-imidazo[4,5-c]pyridin-2-yl)-6-methoxy-3-(pyridin-3-yl)benzene-1,2-diol] | > 100 µM |
| COc1cc(-c2nc3nc(N4CCOCC4)ncc3[nH]2)cc(O)c1O [Example 80, 3-methoxy-5-(2-morpholino-7H-purin-8-yl)benzene-1,2-diol] | > 100 µM |
| COc1cc(-c2nc3cc(N4CCN(C(=O)c5ccc6ccccc6c5)CC4)ccc3[nH]2)cc(O)c1O [Example 81, (4-(2-(3,4-dihydroxy-5-methoxyphenyl)-1H-benzo[d]imidazol-5-yl)piperazin-1-yl)(naphthalen-2-yl)methanone] | > 100 µM |
| COc1cc(-c2nc3cc(N4CCN(Cc5ccc6ccccc6c5)CC4)ccc3[nH]2)cc(O)c1O [Example 82, 3-methoxy-5-(5-(4-(naphthalen-2-ylmethyl)piperazin-1-yl)-1H-benzo[d]imidazol-2-yl)benzene-1,2-diol] | > 100 µM |
| COc1cc(-c2nc3ccc(N4CCOCC4)cc3n2C2CCOC2)cc(O)c1O (centres unmarked) [Example 83, 3-methoxy-5-(6-morpholino-1-(tetrahydrofuran-3-yl)-1H-benzo[d]imidazol-2-yl)benzene-1,2-diol] | 10 to 100 µM |
| COc1cc(-c2nc3cc(N4CCN(C(=O)c5ccc(Cl)cc5)CC4)ccc3[nH]2)cc(O)c1O [Example 84, (4-chlorophenyl)(4-(2-(3,4-dihydroxy-5-methoxyphenyl)-1H-benzo[d]imidazol-5-yl)piperazin-1-yl)methanone] | > 100 µM |
| COc1ccc(C(=O)N2CCN(c3ccc4[nH]c(-c5cc(O)c(O)c(OC)c5)nc4c3)CC2)cc1 [Example 85, (4-(2-(3,4-dihydroxy-5-methoxyphenyl)-1H-benzo[d]imidazol-5-yl)piperazin-1-yl)(4-methoxyphenyl)methanone] | 1 to 10 µM |
| COc1ccccc1C(=O)N1CCN(c2ccc3[nH]c(-c4cc(O)c(O)c(OC)c4)nc3c2)CC1 [Example 86, (4-(2-(3,4-dihydroxy-5-methoxyphenyl)-1H-benzo[d]imidazol-5-yl)piperazin-1-yl)(2-methoxyphenyl)methanone] | 1 to 10 µM |
| COc1cc(-c2nc3cc(N4CCN(S(=O)(=O)c5ccccc5)CC4)ccc3[nH]2)cc(O)c1O [Example 87, 3-methoxy-5-(5-(4-(phenylsulfonyl)piperazin-1-yl)-1H-benzo[d]imidazol-2-yl)benzene-1,2-diol] | > 100 µM |
| C#CCCC1(CCC(=O)N2CCN(c3ccc4[nH]c(-c5cc(O)c(O)c(OC)c5)nc4c3)CC2)N=N1 [Example 88, 3-(3-(but-3-yn-1-yl)-3H-diazirin-3-yl)-1-(4-(2-(3,4-dihydroxy-5-methoxyphenyl)-1H-benzo[d]imidazol-5-yl)piperazin-1-yl)propan-1-one] | > 100 µM |
| COc1cc(-c2nc3ccccc3n2C2COC2)cc(C(=O)O)c1O [Example 89, 2-hydroxy-3-methoxy-5-(1-(oxetan-3-yl)-1H-benzo[d]imidazol-2-yl)benzoic acid] | > 100 µM |
| O=C(O)c1c(O)cc(-c2nc3ccncc3[nH]2)cc1F [Example 90, 2-fluoro-6-hydroxy-4-(3H-imidazo[4,5-c]pyridin-2-yl)benzoic acid] | 10 to 100 µM |
| COc1cc(-c2nc3cc(N4CCNC(C)(C)C4)ccc3[nH]2)cc(O)c1O [Example 91, 5-(5-(3,3-dimethylpiperazin-1-yl)-1H-benzo[d]imidazol-2-yl)-3-methoxybenzene-1,2-diol] | 10 to 100 µM |
| COc1cc(-c2nc3cc(N(C)C)ccc3[nH]2)cc(O)c1O [Example 92, 5-(5-(dimethylamino)-1H-benzo[d]imidazol-2-yl)-3-methoxybenzene-1,2-diol] | > 100 µM |
| COc1cc(-c2nc3ccncc3n2C)c(-c2cccnc2)c(O)c1O [Example 93, 6-methoxy-4-(3-methyl-3H-imidazo[4,5-c]pyridin-2-yl)-3-(pyridin-3-yl)benzene-1,2-diol] | > 100 µM |

Further lines, results first:

| IC50 | Compound |
| --- | --- |
| 10 to 100 µM | COc1cc(-c2nc3nc(N4CCOCC4)ccc3[nH]2)cc(O)c1O [Example 94, 3-methoxy-5-(5-morpholino-1H-imidazo[4,5-b]pyridin-2-yl)benzene-1,2-diol] |
| 10 to 100 µM | COc1cc(-c2nc3cc(N4CCOCC4)ccc3n2C2CCOC2)cc(O)c1O (centres unmarked) [Example 95, 3-methoxy-5-(5-morpholino-1-(tetrahydrofuran-3-yl)-1H-benzo[d]imidazol-2-yl)benzene-1,2-diol] |
| 10 to 100 µM | COc1cc(-c2nc3cc(N4CCN(C(=O)c5ccncc5)CC4)ccc3[nH]2)cc(O)c1O [Example 96, (4-(2-(3,4-dihydroxy-5-methoxyphenyl)-1H-benzo[d]imidazol-5-yl)piperazin-1-yl)(pyridin-4-yl)methanone] |
| 10 to 100 µM | COc1cc(-c2nc3cc(N4CCN(C(=O)c5ccccn5)CC4)ccc3[nH]2)cc(O)c1O [Example 97, (4-(2-(3,4-dihydroxy-5-methoxyphenyl)-1H-benzo[d]imidazol-5-yl)piperazin-1-yl)(pyridin-2-yl)methanone] |
| 1 to 10 µM | COc1cc(-c2nc3cc(N4CCN(C(=O)c5ccc(C)cc5)CC4)ccc3[nH]2)cc(O)c1O [Example 98, (4-(2-(3,4-dihydroxy-5-methoxyphenyl)-1H-benzo[d]imidazol-5-yl)piperazin-1-yl)(p-tolyl)methanone] |
| 1 to 10 µM | COc1cc(-c2nc3cc(N4CCN(C(=O)c5ccccc5C)CC4)ccc3[nH]2)cc(O)c1O [Example 99, (4-(2-(3,4-dihydroxy-5-methoxyphenyl)-1H-benzo[d]imidazol-5-yl)piperazin-1-yl)(o-tolyl)methanone] |
| > 100 µM | COc1cc(-c2nc3cc(N4CCN(C(=O)c5ccc(C)cc5C)CC4)ccc3[nH]2)cc(O)c1O [Example 100, (4-(2-(3,4-dihydroxy-5-methoxyphenyl)-1H-benzo[d]imidazol-5-yl)piperazin-1-yl)(2,4-dimethylphenyl)methanone] |
| 10 to 100 µM | COc1cc(-c2nc3cc(N4CCN(C(=O)c5cccc(C(=O)O)c5)CC4)ccc3[nH]2)cc(O)c1O [Example 101, 3-(4-(2-(3,4-dihydroxy-5-methoxyphenyl)-1H-benzo[d]imidazol-5-yl)piperazine-1-carbonyl)benzoic acid] |
| > 100 µM | COc1cc(-c2nc3cc(N4CCN(C(=O)c5ccc(C(F)(F)F)cc5)CC4)ccc3[nH]2)cc(O)c1O [Example 102, (4-(2-(3,4-dihydroxy-5-methoxyphenyl)-1H-benzo[d]imidazol-5-yl)piperazin-1-yl)(4-(trifluoromethyl)phenyl)methanone] |
| > 100 µM | COc1cc(-c2nc3cc(N4CCN(C(=O)c5cccc(C(F)(F)F)c5)CC4)ccc3[nH]2)cc(O)c1O [Example 103, (4-(2-(3,4-dihydroxy-5-methoxyphenyl)-1H-benzo[d]imidazol-5-yl)piperazin-1-yl)(3-(trifluoromethyl)phenyl)methanone] |
| > 100 µM | COc1cc(-c2nc3cc(N4CCN(C(=O)c5ccccc5C(F)(F)F)CC4)ccc3[nH]2)cc(O)c1O [Example 104, (4-(2-(3,4-dihydroxy-5-methoxyphenyl)-1H-benzo[d]imidazol-5-yl)piperazin-1-yl)(2-(trifluoromethyl)phenyl)methanone] |
| > 100 µM | COc1cc(-c2nc3cc(N4CCN(C(=O)c5ccccc5-c5ccccc5)CC4)ccc3[nH]2)cc(O)c1O [Example 105, [1,1′-biphenyl]-2-yl(4-(2-(3,4-dihydroxy-5-methoxyphenyl)-1H-benzo[d]imidazol-5-yl)piperazin-1-yl)methanone] |
| 1 to 10 µM | COc1cc(-c2nc3ccc(N4CCN(C(=O)c5ccccc5)CC4)cc3n2C2CCOC2)cc(O)c1O (centres unmarked) [Example 106, (4-(2-(3,4-dihydroxy-5-methoxyphenyl)-1-(tetrahydrofuran-3-yl)-1H-benzo[d]imidazol-6-yl)piperazin-1-yl)(phenyl)methanone] |
| 1 to 10 µM | COc1cc(-c2nc3cc(N4CCN(C)C(=O)C4)ccc3[nH]2)cc(O)c1O [Example 108, 4-(2-(3,4-dihydroxy-5-methoxyphenyl)-1H-benzo[d]imidazol-5-yl)-1-methylpiperazin-2-one] |
| 10 to 100 µM | COc1cc(-c2nc3cc(C4CCN(C(C)=O)CC4)ccc3[nH]2)cc(O)c1O [Example 109, 1-(4-(2-(3,4-dihydroxy-5-methoxyphenyl)-1H-benzo[d]imidazol-5-yl)piperidin-1-yl)ethanone] |
| > 100 µM | COc1cc(-c2nc3c(N4CCOCC4)nccc3[nH]2)cc(O)c1O [Example 110, 3-methoxy-5-(4-morpholino-1H-imidazo[4,5-c]pyridin-2-yl)benzene-1,2-diol] |
